According to patent publication US20190031618A1, “BENZIMIDAZOLE DERIVATIVES USEFUL AS CB-1 INVERSE AGONISTS” (Janssen Pharmaceutica NV, priority 2015, published 2019):
pEC50: −log10 of the molar value.

How the values were obtained:
[1] = target: Human CB1R (Cannabinoid receptor 1) (Homo sapiens, UniProt P21554); assay: CB-1 in vitro cAMP (HTRF) assay; format: cell-based; details: HEK cells, cAMP HTRF, 250 nM forskolin; mean where tested more than once; read-out: CB1 HEK_cAMP EC50
Source text: (§1) CB1 and CB2 receptors are Gi-coupled GPCR. Activation of CB1 and CB2 receptors results in a decrease in cAMP production. An inverse agonist of the CB1 or CB2 receptor results in the opposite effect, an increase of cAMP production. The principle of this assay is based on HTRF® technology (Homogeneous Time-Resolved Fluorescence). The method is a competitive immunoassay between native cAMP produced by cells and the cAMP labeled with the fluorophore d2. The tracer binding is quantified by a Mab anti-cAMP labeled with Eu3+TBP-NHS Cryptate (supplied as part of the assay kit). The specific signal (i.e. energy transfer) is inversely proportional to the concentration of cAMP in the standard or sample.
Human CB1R (Cannabinoid receptor 1) was stably transfected in HEK-293 cells (DiscoveRx, cat: 93-0200C1). Human CB2R (Cannabinoid receptor 2) was stably transfected in HEK-293 cells (DiscoveRx, cat: 93-0201C1).
One day prior to experiments media was warmed to 37° C. and the cryo-stored cells were thawed in a 37° C. water bath. The cells were then added to media (10× volume) and the mixture was centrifuged at 1000 RPM for 5 min. The supernate was removed and the cells were re-suspended in media. A sample of the cell suspension was evaluated on a Cedex XS automated cell counter (Innovatis Systems) to determine viable cells/ml. Additional media was added to the cells to achieve a final cell density of 4E5 cells/mL. […] Cells were removed from Row P (location of cAMP standards). […] The cell plates were lidded and stored for 15 minutes in a hood, then transferred to an incubator (37° C., 5% CO2, 95% humidity) overnight.
Test compounds (60 μL, 10 mM) were added to Column 1 and 13 (A1 through N1 and A13 through L13). Test compounds were serially diluted 1/3 by transferring and mixing 20 μl sample with 40 μL DMSO.
DMSO (40 μL) was added to wells of 384 well V bottom polystyrene plate: O2 through O11, M14 through M23, N14 through N23, and O14 through O23. […] The control was serially diluted 1/3 by transferring and mixing 20 μl sample with 40 μL DMSO. This process resulted 11 doses per control, 10 mM to 0.5 μM.
Cells plated the day prior to the assay in clear bottom plates were viewed on an inverse microscope to ensure confluency in the range of 60-75%.
A FLEXDROP (Perkin Elmer) was cleaned with ethanol then water, and primed with Buffer 2. A 384 well V bottom polypropylene plate containing d2 labelled cAMP and a second 384 well V bottom polypropylene plate containing anti-cAMP was prepared (50 μl per well). Media as “dumped” from the cell plate and 30 μL Buffer 1 was added to each well using a Multidrop. The content of the cell plate was again “dumped” and 10 μL Buffer 2 was added to each well using a Flexdrop. […] The cell plate was mixed (Speed 6, Lab-Line Instruments Titer Plate Shaker) and centrifuged (1000 RPMs, 1 min). […] The cell plate was again mixed (speed 6) and centrifuged (1000 RPMs, 1 min). The cell plate was incubated for 30 minutes at room temperature (˜27° C.). The contents of row P were removed and the cAMP standard dilutions were added in duplicate to Row P (P1-12 and P13-24). After incubation, 6 μL d2 labelled cAMP and 6 μL of Anti-cAMP were added to all wells of the cell plate using a BioMek FX (Beckman Coulter). The cell plate was again mixed (speed 6) and centrifuged (1000 RPMs, 1 min) and was incubated for 60 minutes in the dark at room Temp (˜27° C.).
After this final incubation, the cell plate was read in HTRF mode (fluorescence at 665 nm and 620 nm) on an Envision plate Reader (Perkin Elmer). The Envision reader outputs a ratio of channel 1/channel 2 fluorescence×10,000 (Normalized signal (NS)). Amount of cAMP in nM was calculated for each well (based on NS) from a cAMP standard curve located on each plate (at P1-12 and P13-24). EC50 values were determined from a 4-point fit (Hill equation) of a single 11-point compound dosing. Hill slope was fixed at 1.0.

[2] = target: Human CB2R (Cannabinoid receptor 2) (Homo sapiens, UniProt P34972); assay: CB-2 in vitro cAMP (HTRF) assay; format: cell-based; details: HEK cells, cAMP HTRF, 250 nM forskolin; mean where tested more than once; read-out: CB2 HEK_cAMP EC50
Source text: as §1
Human CB1R (Cannabinoid receptor 1) was stably transfected in HEK-293 cells (DiscoveRx, cat: 93-0200C1). Human CB2R (Cannabinoid receptor 2) was stably transfected in HEK-293 cells (DiscoveRx, cat: 93-0201C1). Cell cultures were maintained in media: DMEM (Invitrogen Cat#12430-054) supplemented with 10% HI FBS (Invitrogen Cat#16140-071), 1% L-glutamine (Invitrogen Cat#25030-081), 0.2 mg/ml Hygromycin B (Invitrogen Cat#10687-010), 600 μg/mL G418 (Invitrogen Cat#10131-035), and 1× Penn/Strep (Invitrogen 15140-122). After cell expansion, aliquots were cryo-stored in media containing 5% DMSO (Pierce Cat#20684).
One day prior to experiments media was warmed to 37° C. and the cryo-stored cells were thawed in a 37° C. water bath. The cells were then added to media (10× volume) and the mixture was centrifuged at 1000 RPM for 5 min. The supernate was removed and the cells were re-suspended in media. A sample of the cell suspension was evaluated on a Cedex XS automated cell counter (Innovatis Systems) to determine viable cells/ml. Additional media was added to the cells to achieve a final cell density of 4E5 cells/mL. The cells were then plated into 384 well PDL white solid bottom plates (Greiner, Cat#781945) at 20 μL per well using a Multidrop (Thermo Scientific). Cells were removed from Row P (location of cAMP standards). Two columns of cells were plated into a clear bottom 384 well PDL coated plate (Greiner, Cat#781944) to view confluence the day of the assay. The cell plates were lidded and stored for 15 minutes in a hood, then transferred to an incubator (37° C., 5% CO2, 95% humidity) overnight.
DMSO was added to all wells of 384 well V bottom polystyrene plate (Greiner, Cat#781280) except to columns 1 and 13, rows O and P and wells M13-M23 and N13-N23. Test compounds (60 μL, 10 mM) were added to Column 1 and 13 (A1 through N1 and A13 through L13). Test compounds were serially diluted 1/3 by transferring and mixing 20 μl sample with 40 μL DMSO.
DMSO (40 μL) was added to wells of 384 well V bottom polystyrene plate: O2 through O11, M14 through M23, N14 through N23, and O14 through O23. AM630 (also known as [6-iodo-2-methyl-1-[2-(4-morpholinyl)ethyl]-1H-indol-3-yl](4-methoxyphenyl)-methanone, Cayman Chemical, Cat#10006974) (60 μL, 10 mM) was added to O1; and 1-(2,4-dichlorophenyl)-7-[(4-fluorophenyl)methylene]-4,5,6,7-tetrahydro-N-1-piperidinyl-1H-benzimidazole-3-carboxamide (60 μL, 10 mM) was added to N13. The control was serially diluted 1/3 by transferring and mixing 20 μl sample with 40 μL DMSO. This process resulted 11 doses per control, 10 mM to […].
Cells plated the day prior to the assay in clear bottom plates were viewed on an inverse microscope to ensure confluency in the range of 60-75%. […]

Human CB2R (Cannabinoid receptor 2), sequence (P34972 whole entry): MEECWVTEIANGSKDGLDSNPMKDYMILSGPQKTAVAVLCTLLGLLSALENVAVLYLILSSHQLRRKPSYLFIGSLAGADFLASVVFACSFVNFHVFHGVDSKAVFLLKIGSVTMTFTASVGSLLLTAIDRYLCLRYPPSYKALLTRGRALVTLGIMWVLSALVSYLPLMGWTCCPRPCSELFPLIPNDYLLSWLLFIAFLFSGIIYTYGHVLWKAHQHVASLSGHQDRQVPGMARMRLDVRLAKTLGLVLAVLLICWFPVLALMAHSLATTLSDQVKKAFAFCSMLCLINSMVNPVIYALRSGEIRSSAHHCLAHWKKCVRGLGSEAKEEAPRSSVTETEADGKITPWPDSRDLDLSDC
Human CB1R (Cannabinoid receptor 1), sequence (P21554 whole entry): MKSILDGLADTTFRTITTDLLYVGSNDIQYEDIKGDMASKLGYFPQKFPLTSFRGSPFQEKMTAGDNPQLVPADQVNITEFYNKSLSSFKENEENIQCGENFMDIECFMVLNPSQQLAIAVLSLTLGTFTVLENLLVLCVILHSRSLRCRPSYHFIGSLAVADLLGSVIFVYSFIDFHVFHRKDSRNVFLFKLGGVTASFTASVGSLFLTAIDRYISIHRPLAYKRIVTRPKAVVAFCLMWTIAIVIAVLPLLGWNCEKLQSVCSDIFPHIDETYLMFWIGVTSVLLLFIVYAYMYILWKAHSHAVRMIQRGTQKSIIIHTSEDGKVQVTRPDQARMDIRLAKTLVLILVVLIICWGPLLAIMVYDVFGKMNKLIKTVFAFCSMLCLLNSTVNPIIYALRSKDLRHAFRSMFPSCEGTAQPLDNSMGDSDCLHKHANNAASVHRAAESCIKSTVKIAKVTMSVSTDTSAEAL

| Structure (SMILES) | pEC50 [1] | pEC50 [2] |
| --- | --- | --- |
| CC(c1cccc(C(=O)O)c1)N1CCC(n2c(C3CC3)nc3ccc(C(c4ccc(Cl)cc4)c4ccc(Cl)cc4)cc32)CC1 (single isomer, unassigned) [Example 47] | 8.62 | 4.77 |
| CC(c1cccc(C(=O)O)c1)N1CCC(n2c(C3CC3)nc3ccc(C(c4ccc(Cl)cc4)c4ccc(Cl)cc4)cc32)CC1 (single isomer, unassigned) [Example 48] | 8.52 | 5.42 |
| OC(Cn1c(C2CC2)nc2ccc(C(c3ccc(Cl)cc3)c3ccc(Cl)cc3)cc21)c1ccccc1 (single isomer, unassigned) [Example 289] | 7.53 | < 5.00 |
| CCc1nc2ccc(C(c3ccc(Cl)cc3)c3ccc(Cl)cc3)cc2n1CC(C)c1ccccc1 (single isomer, unassigned) [Example 312] | 7.31 | 5.82 |
| O=C(O)c1ccc(N2CCC(Cn3c(C4CC4)nc4ccc(C(c5ccc(Cl)cc5)c5ccc(Cl)cc5)cc43)CC2)cc1 [Example 1] | 7.94 | 5.55 |
| O=C(O)c1ccnc(N2CCC(Cn3c(C4CC4)nc4ccc(C(c5ccc(Cl)cc5)c5ccc(Cl)cc5)cc43)CC2)n1 [Example 2] | 6.32 | 5.30 |
| O=C(O)c1cnc(N2CCC(Cn3c(C4CC4)nc4ccc(C(c5ccc(Cl)cc5)c5ccc(Cl)cc5)cc43)CC2)nc1 [Example 4] | 8.01 | 5.67 |
| COC(=O)c1cnc(N2CCC(Cn3c(C4CC4)nc4ccc(C(c5ccc(Cl)cc5)c5ccc(Cl)cc5)cc43)CC2)nc1 [Example 5] | 7.48 | 6.20 |
| O=C(O)c1ccc(-c2cccc(CCn3c(C4CC4)nc4ccc(C(c5ccc(Cl)cc5)c5ccc(Cl)cc5)cc43)c2)s1 [Example 6] | 7.55 | 5.41 |
| Clc1ccc(C(c2ccc(Cl)cc2)c2ccc3nc(C4CC4)n(CCOc4cccc(Br)c4)c3c2)cc1 [Example 7] | 7.57 | 5.12 |
| O=C(O)c1ccc(-c2cccc(S(=O)(=O)NCCCn3c(C4CC4)nc4ccc(C(c5ccc(Cl)cc5)c5ccc(Cl)cc5)cc43)c2)cc1 [Example 8] | 7.47 | 7.11 |
| O=S(=O)(NCCCn1c(C2CC2)nc2ccc(C(c3ccc(Cl)cc3)c3ccc(Cl)cc3)cc21)c1cccc(Br)c1 [Example 9] | 7.77 | 6.10 |
| O=C(O)c1cccc(CN2CCC(Cn3c(C4CC4)nc4ccc(C(c5ccc(Cl)cc5)c5ccc(Cl)cc5)cc43)CC2)c1 [Example 10] | 6.49 | 5.76 |
| O=C(O)c1cccc(-c2cccc(CCn3c(C4CC4)nc4ccc(C(c5ccc(Cl)cc5)c5ccc(Cl)cc5)cc43)c2)c1 [Example 11] | 7.31 | 5.30 |
| O=C(O)C(c1ccc(Cl)cc1)(c1ccc(Cl)cc1)c1ccc2nc(C3CC3)n(CC3CCN(S(=O)(=O)C(F)(F)F)CC3)c2c1 [Example 12] | < 5.00 | < 5.00 |
| COC(=O)c1cccc(N2CCC(Cn3c(C4CC4)nc4ccc(C(c5ccc(Cl)cc5)c5ccc(Cl)cc5)cc43)CC2)c1 [Example 13] | < 5.00 | < 5.00 |
| COC(=O)C(c1ccc(Cl)cc1)(c1ccc(Cl)cc1)c1ccc2nc(C3CC3)n(CC3CCN(S(=O)(=O)C(F)(F)F)CC3)c2c1 [Example 14] | 7.77 | < 5.00 |
| O=C(O)c1ccc(S(=O)(=O)N2CCC(Cn3c(C4CC4)nc4ccc(C(c5ccc(Cl)cc5)c5ccc(Cl)cc5)cc43)CC2)cc1 [Example 15] | 7.14 | 6.16 |
| O=C(O)c1cc(OCCn2c(C3CC3)nc3ccc(C(c4ccc(Cl)cc4)c4ccc(Cl)cc4)cc32)cc(C(F)(F)F)c1 [Example 16] | 6.76 | 6.16 |
| O=C(O)c1ccc(-c2cccc(CCn3c(C4CC4)nc4ccc(C(c5ccc(Cl)cc5)c5ccc(Cl)cc5)cc43)c2)cc1 [Example 17] | 7.08 | 5.03 |
| COC(=O)c1cc(OCCn2c(C3CC3)nc3ccc(C(c4ccc(Cl)cc4)c4ccc(Cl)cc4)cc32)cc(C(F)(F)F)c1 [Example 18] | 7.27 | < 5.00 |
| Clc1ccc(C(c2ccc(Cl)cc2)c2ccc3nc(C4CC4)n(CCc4cccc(Br)c4)c3c2)cc1 [Example 20] | 7.81 | < 5.00 |
| O=C(O)c1ccc(S(=O)(=O)N[C@H]2CC[C@H](n3c(C4CC4)nc4ccc(C(c5ccc(Cl)cc5)c5ccc(Cl)cc5)cc43)CC2)cc1 [Example 21] | 6.60 | 5.34 |
| O=C(O)c1cccc(S(=O)(=O)N[C@H]2CC[C@H](n3c(C4CC4)nc4ccc(C(c5ccc(Cl)cc5)c5ccc(Cl)cc5)cc43)CC2)c1 [Example 22] | 7.05 | 5.82 |
| O=C(O)c1cccc(OCCn2c(C3CC3)nc3ccc(C(c4ccc(Cl)cc4)c4ccc(Cl)cc4)cc32)c1 [Example 23] | 6.74 | 5.73 |
| O=C(O)c1cccc(-c2ccc(CCn3c(C4CC4)nc4ccc(C(c5ccc(Cl)cc5)c5ccc(Cl)cc5)cc43)cc2)c1 [Example 24] | 5.71 | 5.14 |
